Experimental data published in ChEMBL document CHEMBL1140148, “Structure-activity studies on a series of a 2-aminopyrimidine-containing histamine H4 receptor ligands” (J Med Chem, 2008).

Columns and labels:
Histamine H4 receptor [1] = target: Histamine H4 receptor (Homo sapiens, UniProt Q9H3N8); details: HEK293
[2] = target: Histamine H4 receptor (Rattus norvegicus) (UniProt Q91ZY1); experiment: Agonist activity at rat histamine H4 receptor expressed in HEK293 cells coexpressing Gqi5 protein assessed as calcium flux by FLIPR assay relative to histamine; assay type: functional, cell-based
Chain of Histamine H4 receptor (Rattus norvegicus) (Q91ZY1 whole entry): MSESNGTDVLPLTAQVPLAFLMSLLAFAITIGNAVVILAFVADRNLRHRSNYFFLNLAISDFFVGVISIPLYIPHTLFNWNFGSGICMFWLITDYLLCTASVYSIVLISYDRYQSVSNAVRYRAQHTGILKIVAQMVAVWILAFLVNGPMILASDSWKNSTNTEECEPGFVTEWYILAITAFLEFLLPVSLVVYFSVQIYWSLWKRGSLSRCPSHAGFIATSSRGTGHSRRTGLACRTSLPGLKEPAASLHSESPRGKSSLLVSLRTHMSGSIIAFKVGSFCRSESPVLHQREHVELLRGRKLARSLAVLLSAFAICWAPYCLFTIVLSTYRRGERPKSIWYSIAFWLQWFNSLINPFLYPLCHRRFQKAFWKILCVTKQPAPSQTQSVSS

Histamine H4 receptor [3] = target: Histamine H4 receptor (Rattus norvegicus, UniProt Q91ZY1); experiment: Agonist activity at rat histamine H4 receptor expressed in HEK293 cells coexpressing Gqi5 protein assessed as calcium flux by FLIPR assay; assay type: functional, cell-based
Chain of Histamine H4 receptor (Rattus norvegicus, UniProt Q91ZY1) (Q91ZY1 whole entry): as above

Chain of Histamine H4 receptor (Homo sapiens, UniProt Q9H3N8) (Q9H3N8 whole entry): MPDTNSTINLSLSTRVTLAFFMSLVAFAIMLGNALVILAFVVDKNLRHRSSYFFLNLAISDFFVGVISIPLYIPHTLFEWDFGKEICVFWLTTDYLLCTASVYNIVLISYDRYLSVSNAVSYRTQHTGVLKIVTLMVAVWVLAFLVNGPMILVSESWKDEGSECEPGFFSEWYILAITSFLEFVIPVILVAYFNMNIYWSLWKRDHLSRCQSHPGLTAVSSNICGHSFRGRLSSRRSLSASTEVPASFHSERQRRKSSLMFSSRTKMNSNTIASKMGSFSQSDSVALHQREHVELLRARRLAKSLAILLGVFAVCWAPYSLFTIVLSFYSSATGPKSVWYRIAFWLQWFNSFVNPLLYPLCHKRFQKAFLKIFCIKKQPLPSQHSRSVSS

SMILES | pKb (Histamine H4 receptor [1]) | Efficacy [2] | EC50 (Histamine H4 receptor [3])
CN1CCN(c2cc(-c3cnn(C)c3)nc(N)n2)CC1 | 7.31 | 78% | 219 nM
Cc1ccccc1-c1cc(N2CCN(C)CC2)nc(N)n1 | 8.07 | 60% | 178 nM
CN1CCN(c2cc(N3CCCCC3)nc(N)n2)CC1 | 8.05 | 73% | 46.8 nM
CN(C)CCNc1cc(C(C)(C)C)nc(N)n1 | 6.91 | 39% | 1780 nM
CN1CCN(c2cc(-c3cn(C)cn3)nc(N)n2)CC1 | 8.05 | 91% | 102 nM
CN1CCN(c2cc(Nc3ccccc3)nc(N)n2)CC1 | 8.18 | 81% | 117 nM
CN1CCN(c2cc(N3CCOCC3)nc(N)n2)CC1 | 7.16 | 87% | 339 nM
CN1CCN(c2cc(O)nc(N)n2)CC1 | 4.44 | 92% | 1480 nM
COc1cnc(N)nc1N1CCN(C)CC1 | 6.9 | 65% | 631 nM
CN1CCN(c2cc(-c3ccc(Cl)cc3)nc(N)n2)CC1 | 8.32 | 74% | 37.2 nM
CN1CCN(c2cc(Sc3ccccc3)nc(N)n2)CC1 | 5.99 | 68% | 8910 nM
COc1cccc(OC)c1-c1cc(N2CCN(C)CC2)nc(N)n1 | 6.81 | 81% | 195 nM
COc1cc(N2CCN(C)CC2)nc(N)n1 | 5.53 | 55% | 10500 nM
CCN(CC)c1cc(N2CCN(C)CC2)nc(N)n1 | 7.55 | 90% | 355 nM
Cc1ccc(-c2cc(N3CCN(C)CC3)nc(N)n2)cc1 | 8.06 | 81% | 56.2 nM
CN1CCN(c2cc(-c3ccc4ccccc4c3)nc(N)n2)CC1 | 7.02 | 41% | 174 nM
CNc1cc(N2CCN(C)CC2)nc(N)n1 | 8.28 | 93% | 490 nM
CN(C)CCN1CCN(c2cc(C(C)(C)C)nc(N)n2)CC1 | 6.44 | 66% | 2400 nM
CN1CCN(c2cc(N3CCC(N(C)C)C3)nc(N)n2)CC1 (configuration not stated) | 5.76 | 62% | 3630 nM
CN1CCN(c2cc(-c3cncnc3)nc(N)n2)CC1 | 5.84 | 61% | 7940 nM
CN1CCN(c2cc(N3CCN(C)CC3)nc(N)n2)CC1 | 6.84 | 68% | 1350 nM

SMILES | pKb (Histamine H4 receptor [1]) | Efficacy [2] | EC50 (Histamine H4 receptor [3])
COc1cccc(-c2cc(N3CCN(C)CC3)nc(N)n2)c1 | 8.12 | 69% | 102 nM
CN1CCN(c2cc(-c3ccncc3)nc(N)n2)CC1 | 7.38 | 63% | 229 nM
CN1CCN(c2nc(N)ncc2-c2ccccc2)CC1 | 5.32 | 72% | 8320 nM
CN1CCN(c2cc(-c3ccccc3)nc(N)n2)CC1 | 8.39 | – | 39.8 nM
CN1CCN(c2cc(-c3ccc(F)nc3F)nc(N)n2)CC1 | 8.27 | 82% | 15.5 nM
CN1CCN(c2cc(N)nc(C(C)(C)C)n2)CC1 | 6.28 | 50% | 4680 nM
Cc1cccc(-c2cc(N3CCN(C)CC3)nc(N)n2)c1 | 8.62 | 59% | 42.7 nM
CN1CCN(c2cc(N3CCNC3=O)nc(N)n2)CC1 | 5.38 | 27% | 12300 nM
COc1c(-c2ccc(C#N)cc2)nc(N)nc1N1CCN(C)CC1 | 6.04 | 51% | 5130 nM
CCN1CCN(c2cc(C(C)(C)C)nc(N)n2)CC1 | 7.86 | 55% | 245 nM
CN1CCN(c2cc(-c3ccc(I)cc3)nc(N)n2)CC1 | 7.83 | 58% | 275 nM
Cc1cnc(N)nc1N1CCN(C)CC1 | 7.07 | 81% | 66.1 nM
CN1CCN(c2cc(C(C)(C)C)nc(O)n2)CC1 | 4.39 | 35% | 22900 nM
CN1CCN(c2cc(N)nc(-c3ccc(C#N)cc3)c2)CC1 | 6.86 | 84% | 1860 nM
CN1CCN(c2cc(-c3cccc(Cl)c3)nc(N)n2)CC1 | 8.24 | 50% | 31.6 nM
CN1CCN(c2cc(-c3cccc(C#N)c3)nc(N)n2)CC1 | 8.06 | 48% | 234 nM
CN1CCN(c2cc(-c3ccccc3C#N)nc(N)n2)CC1 | 6.75 | 73% | 1200 nM
CN1CCC(c2cc(C(C)(C)C)nc(N)n2)CC1 | 5.87 | 55% | 3630 nM
CC(C)(C)c1cc(N2CCNCC2)nc(-n2cccc2)n1 | 6.75 | 84% | 2290 nM
COc1ncc(-c2cc(N3CCN(C)CC3)nc(N)n2)cn1 | 5.91 | 53% | 3240 nM
CN1CCN(c2cc(Cl)nc(N)n2)CC1 | 4.75 | 65% | 17000 nM

SMILES | pKb (Histamine H4 receptor [1]) | Efficacy [2] | EC50 (Histamine H4 receptor [3])
CN1CCN(c2cc(C(C)(C)C)nc(N)n2)CC1 | 8.35 | 64% | 67.6 nM
CN(C)CCCN(C)c1cc(C(C)(C)C)nc(N)n1 | 5.13 | 40% | 9770 nM
CN1CCN(c2cc(N)nc(N)n2)CC1 | 6.37 | 71% | 219 nM
CN1CCN(c2cc(C(C)(C)C)ncn2)CC1 | 7.07 | 79% | 933 nM
CN1CCN(c2cc(-c3cccnc3)nc(N)n2)CC1 | 7.3 | 70% | 209 nM
CN(C)CCN(C)c1cc(C(C)(C)C)nc(N)n1 | 5.71 | 55% | 1120 nM
COc1ccc(-c2cc(N3CCN(C)CC3)nc(N)n2)cc1 | 8.08 | 71% | 115 nM
CN1CCN(c2cc(-c3cn[nH]c3)nc(N)n2)CC1 | 8.38 | 53% | 1820 nM
CN1CCN(c2cc(-c3cccc(I)c3)nc(N)n2)CC1 | 8.27 | 61% | 891 nM
CN1CCN(c2cc(N(C)C)nc(N)n2)CC1 | 6.85 | 59% | 3020 nM
CN1CCN(c2nc(N)nc(C(C)(C)C)n2)CC1 | 7.04 | 70% | 251 nM
COc1ccncc1-c1cc(N2CCN(C)CC2)nc(N)n1 | 7.39 | 76% | 234 nM
CN1CCN(c2nc(N)cc(C(C)(C)C)n2)CC1 | 5.82 | 82% | 7940 nM
Cc1c(-c2ccc(C#N)cc2)nc(N)nc1N1CCN(C)CC1 | 7.36 | 63% | 58.9 nM
COc1ccccc1-c1cc(N2CCN(C)CC2)nc(N)n1 | 8.86 | 68% | 43.7 nM
CN1CCN(c2cc(N3CCCC3)nc(N)n2)CC1 | 8.41 | 79% | 69.2 nM
CN1CCN(c2cc(C34CC5CC(CC(C5)C3)C4)nc(N)n2)CC1 | 7.59 | 61% | 316 nM
Cc1cc(N2CCN(C)CC2)nc(N)n1 | 7.2 | 77% | 363 nM
CN(C)CCOc1cc(C(C)(C)C)nc(N)n1 | 7.02 | 67% | 302 nM
